Experiments:
Format in all cases: cell-based, Candida albicans
C. albicans = assay: synergism between histatin 5 and PHS: PI fluorescence after PHS preincubation, energy-rich (NaCl) or energy-depleted (NaN3); details: for extent of additional increase in PI-fluorescence on addition of Hst5: 25 μM PHS preincubation
Protocol: C. albicans (ATTC 10231), cultured aerobically at 30° C. on Sabouraud dextrose agar plates (SDA, Oxoid, Hampshire, UK) was suspended in 25 ml of Sabouraud dextrose broth in a 100 ml erlenmeyer flask. After 20 h of incubation at 30° C., 1 ml from this suspension was sub-cultured for 1-2 h in 20 ml of Sabouraud dextrose broth, to obtain a mid-log phase culture. Cells were washed twice in 1 mM potassium phosphate (PPB) or 5 mM Tris (pH 7.2), and resuspended in the same buffer to a cell density of 2 McFarland (McF) (approximately 10^7 cells/ml). Cells were suspended in 5 mM Tris buffer (pH 7.2), supplemented with either 5 mM NaCl or 5 mM NaN3. These suspensions were subsequently incubated with 0, 10, 50 and 100 μM PHS dissolved in 5 mM Tris buffer. After 60 minutes of incubation at 30° C., PI was added, and subsequently dilution series of Hst 5 in the corresponding buffer were added. Final concentration of PI was 10 μM, final concentrations of Hst5 ranged between 0 and 50 μM, final cell density was 10^7 cells/ml and final PHS concentrations were 0, 5, 25 and 50 μM. After 0, 20, 40 and 60 minutes the PI fluorescence was monitored at excitation and emission wavelengths of 544 and 620 nm, respectively, in a Fluostar Galaxy microplate fluorimeter (BMFG Labtechnologies, Offenburg, Germany).

C. albicans (ATTC 10231) [1] = assay: microdilution viability assay (plate assay, CFU count); details: 1 mM PPB, 60 min at 30° C., CFUs counted
Protocol: C. albicans (ATTC 10231), cultured aerobically at 30° C. on Sabouraud dextrose agar plates (SDA, Oxoid, Hampshire, UK) was suspended in 25 ml of Sabouraud dextrose broth in a 100 ml erlenmeyer flask. After 20 h of incubation at 30° C., 1 ml from this suspension was sub-cultured for 1-2 h in 20 ml of Sabouraud dextrose broth, to obtain a mid-log phase culture. Cells were washed twice in 1 mM potassium phosphate (PPB) or 5 mM Tris (pH 7.2), and resuspended in the same buffer to a cell density of 2 McFarland (McF) (approximately 10^7 cells/ml). The effects of PHS and Hst5 on the viability of C. albicans were determined in a microdilution viability assay. 50 μl aliquots from a mid-log phase culture of C. albicans were incubated with equal volumes of either peptide or PHS solutions (0.3 to 100 μM) and incubated at 30° C. for 60 min. The incubation mixtures were appropriately diluted (200- to 500-fold) in PBS and 25 μl aliquots were plated on SDA. After 48 h incubation at 30° C. the numbers of CFUs were counted. All experiments were repeated at least three times in duplo. The effect of PHS-treatment on the viability of C. albicans was determined in a micro-dilution viability assay, at the concentration range 0-500 μM (FIG. 1). For comparison the effect of treatment with Hst5 (0-50 μM) is shown. […]

C. albicans (ATTC 10231) [2] = assay: membrane-disruptive activity, propidium iodide fluorescence (PI assay); details: 1 mM PPB, after 15 and 60 minutes
Protocol: C. albicans (ATTC 10231), cultured aerobically at 30° C. on Sabouraud dextrose agar plates (SDA, Oxoid, Hampshire, UK) was suspended in 25 ml of Sabouraud dextrose broth in a 100 ml erlenmeyer flask. After 20 h of incubation at 30° C., 1 ml from this suspension was sub-cultured for 1-2 h in 20 ml of Sabouraud dextrose broth, to obtain a mid-log phase culture. Cells were washed twice in 1 mM potassium phosphate (PPB) or 5 mM Tris (pH 7.2), and resuspended in the same buffer to a cell density of 2 McFarland (McF) (approximately 10^7 cells/ml).
Membrane-disruptive activity of Hst5 and phytosphingosine (PHS) was determined by monitoring the fluorescence enhancement of propidium iodide (Invitrogen, Breda, The Netherlands) in Hst5- or PHS treated cells. The membrane impermeant propidium iodide (PI) only enters membrane-compromised cells, after which the fluorescence of this probe is enhanced 20-30-fold due to its binding to nucleic acids.
Cells obtained by the method described above were suspended in 1 mM PPB buffer (pH 7.2) supplemented with PI (final concentration 10 μM) and subsequently added to two-fold serial dilutions of Hst5 (50 μM down to 0.045 μM) or PHS (500 down to 0.5 μM). Final cell density in the assay was 1 McF. […]

Molecule	PI fluorescence induced by PHS preincubation alone (C. albicans; 25 μM PHS in the presence of NaN3, vs control with NaCl)	effect of PHS pretreatment on sensitivity of C. albicans to Hst5 (C. albicans; non-lethal dosages PHS, in particular energy-depleted conditions)	effect of PHS preincubation on Hst5-mediated influx of PI (C. albicans; preincubation with 25 or 50 μM PHS, NaCl, 6.1 μM Hst5, relative to 0 μM PHS)	concentration at which complete killing was reached (C. albicans (ATTC 10231) [1]) [µM]	extent of additional increase in PI-fluorescence on addition of Hst5 (C. albicans; NaCl control (energy-rich)) [fluorescence units]	extent of additional increase in PI-fluorescence on addition of Hst5 (C. albicans; NaN3 (energy-depleted))	effect of energy-depletion on sensitivity of C. albicans to the substance (C. albicans; 5 mM NaN3 vs 5 mM NaCl in 5 mM Tris, t=0 and t=20 min)	lowest Hst5 concentration with immediate additional increase in PI fluorescence (C. albicans; after pre-incubation with 25 μM PHS, NaCl, t=0) [µM]	concentration needed to induce uptake of PI, Hst5 compared with PHS (C. albicans (ATTC 10231) [2])
CCCCCCCCCCCCCC[C@@H](O)[C@@H](O)[C@@H](N)CO [PHS, phytosphingosine]	induces an increase in PI fluorescence, comparable to that of the control	increases its sensitivity to Hst5	instantaneously accelerates the Hst5-mediated influx of PI	250	–	–	–	–	–
histatin 5 (DSHAKRHHGYKRKFHEKHHSHRGY) [Hst5]	–	–	–	10	1000	approx 500 fluorescence units	energy-depletion protects C. albicans against Hst5	0.75	induced the uptake of PI at much lower concentrations
